These results are taken from PMC6692420, “Validation of [^125I]CPCR4.3 as an investigative tool for the sensitive and specific detection of hCXCR4 and mCXCR4 expression in vitro and in vivo” (EJNMMI Research, 2019).

In one assay the target is T1, mCXCR4 (Mus musculus, UniProt P70658).
T1 construct: endogenous in cells; host or cells: Eμ-myc 1080 mouse B cell lymphoma cells
In words: Competitive binding assay (IC50) on Eμ-Myc 1080 mouse lymphoma cells with [^125I]CPCR4.3 as radioligand. Particulars: Eμ-Myc1080 mouse B cell lymphoma cells, 200,000 cells/sample, radioligand [^125I]CPCR4.3. The method, then:
To allow data normalization, [^natGa] Pentixafor and FC-131 were included as references in this study. Experiments were performed in triplicate with n = 3 per concentration in each experiment. IC50 values were calculated using GraphPad Prism 6.01 (Graph Pad Software, San Diego, USA).

The next assay addresses T2, hCXCR4 (Homo sapiens, UniProt P61073).
T2 construct: endogenous hCXCR4 (Jurkat); endogenous in cells
In words: Competitive binding assay (IC50) on Jurkat cells with [^125I]CPCR4.3 as radioligand. Particulars: for IC50: Jurkat human T cell leukemia cells, 200,000 cells/sample, radioligand [^125I]CPCR4.3. On the procedure: To allow data normalization, [^natGa] […] Experiments were performed in triplicate with n = 3 per concentration in each experiment. IC50 values were calculated using GraphPad Prism 6.01 (Graph Pad Software, San Diego, USA).

Non-standard residues stand in square brackets, D forms with d. Residues, ends and D or L forms follow the SMILES beside them. dAla(N-(6-guanidinohexyl)) = C[C@@H](NCCCCCCNC(=N)N)C(=O)O; dTyr(3-I) = N[C@H](Cc1ccc(O)c(I)c1)C(=O)O; 2Nal = N[C@@H](Cc1ccc2ccccc2c1)C(=O)O

T2 sequence (P61073 whole entry): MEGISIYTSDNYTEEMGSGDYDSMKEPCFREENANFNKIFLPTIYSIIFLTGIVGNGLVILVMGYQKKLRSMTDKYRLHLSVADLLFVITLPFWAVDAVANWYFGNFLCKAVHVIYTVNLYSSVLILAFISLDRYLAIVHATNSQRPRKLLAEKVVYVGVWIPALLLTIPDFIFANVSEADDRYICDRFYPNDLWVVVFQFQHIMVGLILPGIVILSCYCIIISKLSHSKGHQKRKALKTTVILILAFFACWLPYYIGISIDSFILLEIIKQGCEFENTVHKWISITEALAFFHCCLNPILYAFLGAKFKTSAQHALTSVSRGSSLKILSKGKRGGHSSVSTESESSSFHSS
T1 sequence (P70658 whole entry): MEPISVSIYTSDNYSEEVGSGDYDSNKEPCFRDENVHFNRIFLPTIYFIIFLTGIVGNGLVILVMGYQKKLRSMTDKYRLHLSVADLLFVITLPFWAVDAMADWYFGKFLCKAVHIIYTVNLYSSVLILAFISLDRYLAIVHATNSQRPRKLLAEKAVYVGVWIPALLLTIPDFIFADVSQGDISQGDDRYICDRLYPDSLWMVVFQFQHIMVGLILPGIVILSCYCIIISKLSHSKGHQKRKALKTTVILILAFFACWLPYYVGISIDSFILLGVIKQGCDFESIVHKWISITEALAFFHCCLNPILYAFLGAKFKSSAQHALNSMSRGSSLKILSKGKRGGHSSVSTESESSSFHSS

The term IC50 denotes the concentration that gives 50% inhibition. Low readings indicate greater potency, high ones weaker potency. For the compound `N=C(N)NCCC[C@@H]1NC(=O)[C@H](CCCNC(=N)N)NC(=O)[C@@H](Cc2ccc(O)cc2)NC(=O)CNC(=O)[C@H](Cc2ccc3ccccc3c2)NC1=O` [FC-131], the IC50 at mCXCR4 was 119 ± 69 nM. Also, the “hCXCR4 affinity higher than [^natGa]Pentixafor” value at hCXCR4 (assay conditions of this study) is given as “more than 3 fold”.
Compound “Ga-Pentixafor: natGa complex of the cyclic pentapeptide Pentixafor, hCXCR4 selective reference ligand (YXRXG; Head-to-tail cyclic pentapeptide; The parent CPCR4.3 is printed as cyclo(-D-Tyr1-D-[N-hexyl-6-guanidino]Ala2-Arg3-Nal4-Gly5-); the text states that Pentixafor has D-Orn at position 2 instead of the N-)” had an IC50 in the assay with hCXCR4 of 42.4 ± 11.6 nM.
For the compound `C[C@@H]1C(=O)N[C@@H](CCCNC(=N)N)C(=O)N[C@@H](Cc2ccc3ccccc3c2)C(=O)NCC(=O)N[C@H](Cc2ccc(O)c(I)c2)C(=O)N1CCCCCCNC(=N)N` [iodo-CPCR4.3] (cyclo([dTyr(3-I)][dAla(N-(6-guanidinohexyl))]R[2Nal]G)), the results for the IC50 at mCXCR4 and at hCXCR4 were 4.9 ± 1.7 nM and 5.4 ± 1.5 nM, respectively.
“Ga-Pentixafor: natGa complex of the cyclic pentapeptide Pentixafor, hCXCR4 selective reference ligand”: in the assay with mCXCR4, the IC50 was over 1000 nM.
As for `C[C@@H]1C(=O)N[C@@H](CCCNC(=N)N)C(=O)N[C@@H](Cc2ccc3ccccc3c2)C(=O)NCC(=O)N[C@H](Cc2ccc(O)cc2)C(=O)N1CCCCCCNC(=N)N` [CPCR4.3, cyclo(-D-Tyr^1-D-[N-hexyl-6-guanidino]Ala^2-Arg^3-Nal^4-Gly^5-)] (cyclo([dY][dAla(N-(6-guanidinohexyl))]R[2Nal]G)), the IC50 is 0.8 ± 0.1 nM on mCXCR4 and 2.8 ± 1.1 nM at hCXCR4.
